Measured values reported in patent US20160362399A1, “ARYL, HETEROARYL, AND HETEROCYCLIC COMPOUNDS FOR TREATMENT OF COMPLEMENT MEDIATED DISORDERS” (Achillion Pharmaceuticals, Inc., priority 2014, published 2016).
Like-named read-outs stand apart in the source and are kept apart here.

Biological target: T1, Human factor D (Homo sapiens, UniProt P00746)
T1 construct: purified from human serum; purchased Complement Technology, Inc; host or cells: human serum
Experiment: Human Factor D Assay
Assay type: biochemical
Method: Other standard factor D inhibition assays are also available.
Human factor D (purified from human serum, Complement Technology, Inc.) at 80 nM final concentration is incubated with test compound at various concentrations for 5 minutes at room temperature in 50 mM Tris, 1M NaCl, pH 7.5. A synthetic substrate Z-L-Lys-SBzl and DTNB (Ellman's reagent) are added to final concentrations of 100 μM each. The increase in color is recorded at OD405 nm in a microplate in kinetic mode over 30 minutes with 30 second time points in a spectrofluorimeter. IC50 values are calculated by non-linear regression from the percentage of inhibition of complement factor D activity as a function of test compound concentration.

[1] = human factor D 80 nM, substrate Z-L-Lys-SBzl, assay of Example 7, read-out: IC50

T1 sequence (P00746 26-253): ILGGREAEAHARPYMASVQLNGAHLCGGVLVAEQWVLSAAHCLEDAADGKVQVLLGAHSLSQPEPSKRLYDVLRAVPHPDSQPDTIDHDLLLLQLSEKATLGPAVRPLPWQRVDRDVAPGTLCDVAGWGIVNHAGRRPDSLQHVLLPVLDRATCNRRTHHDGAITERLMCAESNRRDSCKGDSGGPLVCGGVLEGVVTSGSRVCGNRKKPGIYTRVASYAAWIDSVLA

| Compound | IC50 [µM] | IC50 [1] [µM] |
| --- | --- | --- |
| CC(=O)c1cn(CC(=O)N2C[C@H](F)C[C@H]2C(=O)Nc2cccc(-c3ccccc3Cl)c2F)c2ccc(C3=CCN(C(C)=O)CC3)cc12 [Compound 28, (2S,4R)-1-(2-(3-acetyl-5-(1-acetyl-1,2,3,6-tetrahydropyridin-4-yl)-1H-indol-1-yl)acetyl)-N-(2′-chloro-2-fluorobiphenyl-3-yl)-4-fluoropyrrolidine-2-carboxamide] | < 1 | – |
| COc1ncc(-c2ccc3c(c2)c(C(N)=O)nn3CC(=O)N2C[C@H](F)C[C@H]2C(=O)Nc2cccc(-c3ccccc3Cl)c2F)cn1 [Compound 29, 1-(2-((2S,4R)-2-(2′-chloro-2-fluorobiphenyl-3-ylcarbamoyl)-4-fluoropyrrolidin-1-yl)-2-oxoethyl)-5-(2-methoxypyrimidin-5-yl)-1H-indazole-3-carboxamide] | – | < 1 |
| NC(=O)c1nn(CC(=O)N2C[C@H](F)C[C@H]2C(=O)Nc2ccccc2-c2nc3ccccc3s2)c2ccc(-c3ccnnc3)cc12 [Compound 41, 1-(2-((2S,4R)-2-(2-(benzo[d]thiazol-2-yl)phenylcarbamoyl)-4-fluoropyrrolidin-1-yl)-2-oxoethyl)-5-(pyridazin-4-yl)-1H-indazole-3-carboxamide] | – | > 10 |
| NC(=O)c1nn(CC(=O)N2C[C@H](F)C[C@H]2C(=O)N[C@@H]2CCC[C@@H]2OCc2ccccc2)c2ccc(-c3ccnnc3)cc12 [Compound 51, 1-(2-((2S,4R)-2-((1R,2S)-2-(benzyloxy)cyclopentylcarbamoyl)-4-fluoropyrrolidin-1-yl)-2-oxoethyl)-5-(pyridazin-4-yl)-1H-indazole-3-carboxamide] | > 10 | – |
| Cc1nc2sccn2c1-c1csc(NC(=O)[C@@H]2C[C@@H](F)CN2C(=O)Cn2nc(C(N)=O)c3cc(-c4ccnnc4)ccc32)n1 [Compound 58, 1-(2-((2S,4R)-4-fluoro-2-(4-(6-methylimidazo[2,1-b]thiazol-5-yl)thiazol-2-ylcarbamoyl)pyrrolidin-1-yl)-2-oxoethyl)-5-(pyridazin-4-yl)-1H-indazole-3-carboxamide] | – | > 10 |
| CC(=O)c1cn(CC(=O)N2[C@@H]3C[C@@H]3C[C@H]2C(=O)Nc2cccc(Br)n2)c2ccc(-c3cnc(C)nc3)cc12 [Compound 132, (1R,3S,5R)-2-(2-(3-acetyl-5-(2-methylpyrimidin-5-yl)-1H-indol-1-yl)acetyl)-N-(6-bromopyridin-2-yl)-2-azabicyclo[3.1.0]hexane-3-carboxamide] | – | < 1 |
